≈ marks a conversion by molar mass, not a printed value.
Columns and labels:
[1] = Unbound clearance in rat liver microsomes at 0.5 uM incubated upto 45 mins; assay type: ADME, Microsome; settings: 0.75 h
[2] = Unbound clearance in human liver microsomes at 0.5 uM incubated upto 45 mins; assay type: ADME, Microsome; settings: 0.75 h
[3] = Inhibition of STT3A/STT3B mediated N-linked glycosylation in human H1-HeLa cells stably transduced with ERluc by measuring effective concentration of inhibition incubated for 18 hrs by One-Glo luciferase reporter assay; assay type: cell-based
[4] = Chromatographic hydrophobicity index, logD of the compound at pH 7.4; assay type: physicochemical; settings: buffer
[5] = Cytotoxicity against human Hepatocyte cultured as 3D spheroids incubated for 14 days by CellTiter-Glo luminescence assay; assay type: toxicity, cell-based; settings: hepatocytes cultured as 3D spheroids
[6] = Solubility of compound in FaSSIF; assay type: ADME
Influenza A virus = experiment: Antiviral activity against influenza A virus H1N1 A/Puerto Rico/8/1934 infected in MDCK cells assessed as reduction in viral proliferation incubated for 24 hrs by FFU assay; assay type: functional, organism-based; settings: H1N1 A/Puerto Rico/8/1934, MDCK
Human coronavirus 229E = experiment: Antiviral activity against Human coronavirus 229E infected in human MRC5 cells assessed as reduction in viral growth incubated for 68 hrs by CellTiter-Glo luminescence assay; assay type: functional, organism-based; settings: MRC5, 68 h
[7] = MRT in CD1 mouse at 2 mg/kg,po or 1 mg/kg,iv administrated upto 60 mins by LC-MS/MS analysis; assay type: ADME, organism-based; settings: in vivo
[8] = Bioavailability in CD1 mouse at 2 mg/kg,po or 1 mg/kg,iv administrated upto 60 mins by LC-MS/MS analysis; assay type: ADME, organism-based; settings: in vivo
A549 = experiment: Cytotoxicity against human A549 cells; assay type: functional
[9] = Volume of distribution at steady state in CD1 mouse at 2 mg/kg,po or 1 mg/kg,iv administrated upto 60 mins by LC-MS/MS analysis; assay type: ADME, organism-based; settings: in vivo, 1 h
SARS-CoV-2 = experiment: Antiviral activity against SARS-CoV-2 infected in human A549 cells assessed as reduction in viral growth incubated for 24 hrs by Nano-Glo reagent based analysis; assay type: functional, organism-based; settings: Severe acute respiratory syndrome coronavirus 2, A549, 24 h
[10] = Unbound clearance in CD1 mouse at 2 mg/kg,po or 1 mg/kg,iv administrated upto 60 mins by LC-MS/MS analysis; assay type: ADME, organism-based; settings: in vivo, 1 h
[11] = Unbound clearance in mouse liver microsomes at 0.5 uM incubated upto 45 mins; assay type: ADME, Microsome; settings: 0.75 h
[12] = Cytotoxicity against human MRC5 cells by luminescence-based cell viability assay; assay type: toxicity

| SMILES | CL free [1] | CL free [2] | EC50 [3] | chromatographic logD [4] | other results |
| --- | --- | --- | --- | --- | --- |
| CN(C)S(=O)(=O)c1ccc(N2CCC2)c(-c2cc3ccccc3[nH]2)c1 | 7395 mL/min/kg | 117 mL/min/kg | 31 nM | 6.5 |  |
| CN(C)S(=O)(=O)c1ccc(N2CCCC2)c(-c2cc3cc(F)ccc3[nH]2)c1 |  |  | 172 nM |  |  |
| Cc1ccc2cc(-c3cc(S(=O)(=O)N(C)CC(=O)NCCC4(CCNC(=O)O[C@@H]5CC/C=C/CCC5)N=N4)ccc3N3CCCC3)[nH]c2c1 |  |  | 827 nM |  |  |
| CN(C)S(=O)(=O)c1ccc(N2CCCC2)c(-c2nc3ccccc3[nH]2)c1 |  |  | 4420 nM |  |  |
| CN(C)S(=O)(=O)c1ccc(N2CCCC2)c(C(=O)Nc2ccccc2)c1 |  |  | 5010 nM |  |  |
| CN(C)S(=O)(=O)c1ccc(N2CCCC2)c(C(=O)Nc2ncc(C3CC3)s2)c1 |  |  | 332 nM |  |  |
| O=C([C@H]1CCN1S(=O)(=O)c1ccc(N2CCC(F)(F)C2)c(-c2cc3ccccc3[nH]2)c1)N1CCOCC1 | 3480 mL/min/kg |  | 615 nM | 5.3 | IC50 at 14 days [5]: 2500 nM |
| CCS(=O)(=O)c1ccc(N2CC[C@H](O)C2)c(-c2cc3ccccc3[nH]2)c1 |  | < 19 mL/min/kg | 36 nM | 4.3 | solubility [6]: 130 µg/mL (≈ 351 µM); EC50 (Influenza A virus): 307 nM; EC50 (Human coronavirus 229E): 58 nM; MRT [7]: 1.4 h; bioavailability [8]: 33%; CC50 (A549): 3800 nM; Vdss [9]: 2.7 L/kg; EC50 (SARS-CoV-2): 116 nM; CL free [10]: 706 mL/min/kg; CL free [11]: < 49 mL/min/kg; CC50 [12]: 4110 nM |
| Cc1ccc2[nH]c(-c3cc(S(=O)(=O)N(C)C)ccc3N3CCCC3)cc2c1 |  |  | 32 nM |  |  |
| CN(C)S(=O)(=O)c1ccc(N2CCC(F)(F)C2)c(-c2cc3ccccc3[nH]2)c1 | 27713 mL/min/kg | 526 mL/min/kg | 107 nM | 6.6 |  |
| CN(C)S(=O)(=O)c1ccc(N2CCCC2)c(-c2cc3cccnc3[nH]2)c1 |  |  | 409 nM |  |  |
| CN(C)S(=O)(=O)c1ccc(N2CC[C@@H](O)C2)c(-c2cc3ccccc3[nH]2)c1 | 1795 mL/min/kg | 160 mL/min/kg | 513 nM | 4.8 | IC50 at 14 days [5]: 6300 nM |

Reference: ChEMBL document CHEMBL5576149, “Discovery of Potent STT3A/B Inhibitors and Assessment of Their Multipathogen Antiviral Potential and Safety” (J Med Chem, 2024)
